In patent publication US20220348592A1, “FUSED HETEROCYCLIC DERIVATIVES” (Janssen Sciences Ireland Unlimited Company, priority 2019, published 2022):

Tests used:
[1] = Cytotoxicity in HepG2.117 cells, ATPlite Luminescence Assay; assay type: cell-based, human; details: human, incubated for 3 days, mean value, read-out: TOX-HepG2.117 CC50 (μM, mean value)
Experimental: Cytotoxicity of the compounds was tested using HepG2 or HepG2.117 cells, incubated for 3 days in the presence of compounds. The viability of the cells was assessed using the PERKIN ELMER ATPlite Luminescence Assay System.”

HBV = assay: Anti-HBV activity: intracellular HBV DNA by real-time PCR in HepG2.117 cell line; assay type: cell-based, Hepatitis B virus; details: Hepatitis B virus, 72 h; HepG2.117 cells, 3 days of treatment, intracellular HBV DNA by real-time PCR, mean value; read-out: HBV-AVE-HepG2.117 EC50 (μM, mean value)
How it was run: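 HepG2.117 cells, a Tet-off inducible HBV-producing line, induced to replicate HBV and then treated with serially diluted compound. After 3 days, intracellular HBV DNA quantified by real-time PCR with HBV-specific primers and probe.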

SMILES | CC50 at 3 days [1] [µM] | EC50 (HBV) [µM]
C[C@@H]1Cc2nn3c(c2CN1C(=O)c1ccc(C(F)(F)F)cc1)C(=O)N(Cc1ccccn1)CC3 [Example C115] | > 50 | 0.265
C[C@@H]1Cc2nn3c(c2CN1C(=O)c1cc2c(Cl)cc(F)cc2[nH]1)C(=O)N(Cc1ccccn1)CC3 [Example C116] | 12.4 | 0.015
C[C@@H]1Cc2nn3c(c2CN1C(=O)c1cc2c(Cl)ccc(F)c2[nH]1)C(=O)N(Cc1ccccn1)CC3 [Example C117] | 18.2 | 0.119
C[C@@H]1Cc2nn3c(c2CN1C(=O)c1cc2c(C(F)F)c(F)ccc2[nH]1)C(=O)N(Cc1ccccn1)CC3 [Example C124] | 26.7 | 0.011
C[C@@H]1Cc2nn3c(c2CN1C(=O)c1cc2c(C(F)(F)F)c(F)ccc2[nH]1)C(=O)N(Cc1ccccn1)CC3 [Example C125] | > 50 | 0.037
CC(c1ccc(OC(F)(F)F)cc1)N1CCn2nc3c(c2C1=O)CN(C(=O)c1ccc(Cl)c(Cl)c1)[C@H](C)C3 (stereo partly drawn) [Example C127] | 15.7 | 0.133
CC(c1ccc(F)nc1)N1CCn2nc3c(c2C1=O)CN(C(=O)c1ccc(Cl)c(Cl)c1)[C@H](C)C3 (stereo partly drawn) [Example C128] | > 50 | 0.081
CC(c1ccccc1C#N)N1CCn2nc3c(c2C1=O)CN(C(=O)c1ccc(Cl)c(Cl)c1)[C@H](C)C3 (stereo partly drawn) [Example C129] | > 50 | 0.143
CC(c1ccc(Cl)nc1)N1CCn2nc3c(c2C1=O)CN(C(=O)c1ccc(Cl)c(Cl)c1)[C@H](C)C3 (stereo partly drawn) [Example C130] | 33.7 | 0.082
COc1cccc(C(C)N2CCn3nc4c(c3C2=O)CN(C(=O)c2ccc(Cl)c(Cl)c2)[C@H](C)C4)c1 (stereo partly drawn) [Example C131] | 19.6 | 0.038
C[C@@H]1Cc2nn3c(c2CN1C(=O)c1ccc(Cl)c(Cl)c1)C(=O)N(Cc1cncc(Cl)c1)CC3 [Example C132] | > 50 | 0.061
C[C@@H]1Cc2nn3c(c2CN1C(=O)c1ccc(Cl)c(Cl)c1)C(=O)N(Cc1nccn1C(F)F)CC3 [Example C133] | > 50 | 0.332
CCCn1c(C)nnc1CN1CCn2nc3c(c2C1=O)CN(C(=O)c1ccc(Cl)c(Cl)c1)[C@H](C)C3 [Example C134] | > 50 | > 2.5
C[C@@H]1Cc2nn3c(c2CN1C(=O)c1ccc(Cl)c(Cl)c1)C(=O)N(Cc1ccn(CC(F)(F)F)n1)CC3 [Example C135] | > 50 | 0.1
Cc1nnc(CN2CCn3nc4c(c3C2=O)CN(C(=O)c2ccc(Cl)c(Cl)c2)[C@H](C)C4)n1C [Example C136] | > 50 | > 2.5
CC(C)n1ccc(CN2CCn3nc4c(c3C2=O)CN(C(=O)c2ccc(Cl)c(Cl)c2)[C@H](C)C4)n1 [Example C137] | > 50 | 0.056
Cc1cnc(CN2CCn3nc4c(c3C2=O)CN(C(=O)c2ccc(Cl)c(Cl)c2)[C@H](C)C4)o1 [Example C138] | > 50 | 0.061
Cc1cncc(CN2CCn3nc4c(c3C2=O)CN(C(=O)c2ccc(Cl)c(Cl)c2)[C@H](C)C4)c1 [Example C139] | > 50 | 0.04
Cc1cc(CN2CCn3nc4c(c3C2=O)CN(C(=O)c2ccc(Cl)c(Cl)c2)[C@H](C)C4)no1 [Example C141] | > 50 | 0.056
Cc1noc(C)c1CN1CCn2nc3c(c2C1=O)CN(C(=O)c1ccc(Cl)c(Cl)c1)[C@H](C)C3 [Example C142] | > 50 | 0.268
C[C@@H]1Cc2nn3c(c2CN1C(=O)c1ccc(Cl)c(Cl)c1)C(=O)N(Cc1noc(C2CC2)n1)CC3 [Example C143] | > 50 | 0.16
C[C@@H]1Cc2nn3c(c2CN1C(=O)c1ccc(Cl)c(Cl)c1)C(=O)N(Cc1ncnn1C)CC3 [Example C144] | > 50 | > 2.5
Cc1cc(CN2CCn3nc4c(c3C2=O)CN(C(=O)c2ccc(Cl)c(Cl)c2)[C@H](C)C4)on1 [Example C145] | > 50 | 0.106
Cc1nonc1CN1CCn2nc3c(c2C1=O)CN(C(=O)c1ccc(Cl)c(Cl)c1)[C@H](C)C3 [Example C146] | > 50 | 1.79
C[C@@H]1Cc2nn3c(c2CN1C(=O)c1ccc(Cl)c(Cl)c1)C(=O)N(Cc1cnn(C)c1)CC3 [Example C147] | > 50 | 0.054
Cc1noc(CN2CCn3nc4c(c3C2=O)CN(C(=O)c2ccc(Cl)c(Cl)c2)[C@H](C)C4)n1 [Example C148] | > 50 | 0.385
Cc1nc(C)c(CN2CCn3nc4c(c3C2=O)CN(C(=O)c2ccc(Cl)c(Cl)c2)[C@H](C)C4)o1 [Example C149] | > 50 | 0.059

SMILES | CC50 at 3 days [1] [µM] | EC50 (HBV) [µM]
Cc1ncsc1CN1CCn2nc3c(c2C1=O)CN(C(=O)c1ccc(Cl)c(Cl)c1)[C@H](C)C3 [Example C150] | > 50 | 0.075
Cc1nc(CN2CCn3nc4c(c3C2=O)CN(C(=O)c2ccc(Cl)c(Cl)c2)[C@H](C)C4)no1 [Example C151] | > 50 | 0.42
Cc1cccnc1CN1CCn2nc3c(c2C1=O)CN(C(=O)c1ccc(Cl)c(Cl)c1)[C@H](C)C3 [Example C152] | > 50 | 0.145
C[C@@H]1Cc2nn3c(c2CN1C(=O)c1ccc(Cl)c(Cl)c1)C(=O)N(Cc1cncc(F)c1)CC3 [Example C153] | > 50 | 0.082
Cc1cc(F)ccc1CN1CCn2nc3c(c2C1=O)CN(C(=O)c1ccc(Cl)c(Cl)c1)[C@H](C)C3 [Example C154] | 9.53 | 0.071
C[C@@H]1Cc2nn3c(c2CN1C(=O)c1ccc(Cl)c(Cl)c1)C(=O)N(Cc1cn(C)nc1C(F)F)CC3 [Example C155] | > 50 | 0.083
Cc1nc(CN2CCn3nc4c(c3C2=O)CN(C(=O)c2ccc(Cl)c(Cl)c2)[C@H](C)C4)co1 [Example C156] | > 50 | 0.174
Cc1cc(CN2CCn3nc4c(c3C2=O)CN(C(=O)c2ccc(Cl)c(Cl)c2)[C@H](C)C4)nn1C [Example C157] | > 50 | 0.02
Cc1nnc(CN2CCn3nc4c(c3C2=O)CN(C(=O)c2ccc(Cl)c(Cl)c2)[C@H](C)C4)n1C1CC1 [Example C158] | > 50 | 2.38
C[C@@H]1Cc2nn3c(c2CN1C(=O)c1ccc(Cl)c(Cl)c1)C(=O)N(Cc1ncccc1C(F)(F)F)CC3 [Example C159] | 36 | 0.979
Cc1ncc(CN2CCn3nc4c(c3C2=O)CN(C(=O)c2ccc(Cl)c(Cl)c2)[C@H](C)C4)s1 [Example C160] | > 50 | 0.029
C[C@@H]1Cc2nn3c(c2CN1C(=O)c1ccc(Cl)c(Cl)c1)C(=O)N(Cc1cc(Cl)cc(C#N)c1)CC3 [Example C161] | > 50 | 0.051
Cc1nc(CN2CCn3nc4c(c3C2=O)CN(C(=O)c2ccc(Cl)c(Cl)c2)[C@H](C)C4)cs1 [Example C162] | > 50 | 0.082
COc1ccc(CN2CCn3nc4c(c3C2=O)CN(C(=O)c2ccc(Cl)c(Cl)c2)[C@H](C)C4)cc1C#N [Example C163] | > 50 | 0.098
CC(C)Oc1ccc(CN2CCn3nc4c(c3C2=O)CN(C(=O)c2ccc(Cl)c(Cl)c2)[C@H](C)C4)cc1 [Example C164] | 4.29 | 0.039
C[C@@H]1Cc2nn3c(c2CN1C(=O)c1ccc(Cl)c(Cl)c1)C(=O)N(Cc1nnn(C)c1C(F)(F)F)CC3 [Example C165] | > 50 | 0.676
COc1cccc(F)c1CN1CCn2nc3c(c2C1=O)CN(C(=O)c1ccc(Cl)c(Cl)c1)[C@H](C)C3 [Example C166] | 29.1 | 0.034
C[C@@H]1Cc2nn3c(c2CN1C(=O)c1ccc(Cl)c(Cl)c1)C(=O)N(Cc1ccncc1C(F)F)CC3 [Example C167] | > 50 | 0.277
COc1ccc(CN2CCn3nc4c(c3C2=O)CN(C(=O)c2ccc(Cl)c(Cl)c2)[C@H](C)C4)c(F)c1 [Example C168] | 6.11 | 0.046
C[C@@H]1Cc2nn3c(c2CN1C(=O)c1ccc(Cl)c(Cl)c1)C(=O)N(Cc1ncoc1C(F)(F)F)CC3 [Example C169] | > 50 | 0.831
C[C@@H]1Cc2nn3c(c2CN1C(=O)c1ccc(Cl)c(Cl)c1)C(=O)N(Cc1ccc(C#N)cc1C(F)(F)F)CC3 [Example C170] | > 50 | 0.432
C[C@@H]1Cc2nn3c(c2CN1C(=O)c1ccc(Cl)c(Cl)c1)C(=O)N(Cc1ccc(C(F)(F)F)nc1)CC3 [Example C171] | 15.3 | 0.082
C[C@@H]1Cc2nn3c(c2CN1C(=O)c1ccc(Cl)c(Cl)c1)C(=O)N(Cc1coc(C(F)(F)F)n1)CC3 [Example C172] | > 50 | 0.19
Cc1cn(C)c(CN2CCn3nc4c(c3C2=O)CN(C(=O)c2ccc(Cl)c(Cl)c2)[C@H](C)C4)n1 [Example C173] | > 50 | 0.41
C[C@@H]1Cc2nn3c(c2CN1C(=O)c1ccc(Cl)c(Cl)c1)C(=O)N(Cc1ccccc1OC(F)(F)F)CC3 [Example C174] | 15.3 | 0.18
C[C@@H]1Cc2nn3c(c2CN1C(=O)c1ccc(Cl)c(Cl)c1)C(=O)N(Cc1ccc(C#N)cc1F)CC3 [Example C175] | 35.5 | 0.038
C[C@@H]1Cc2nn3c(c2CN1C(=O)c1ccc(Cl)c(Cl)c1)C(=O)N(Cc1cn2ccc(C(F)(F)F)cc2n1)CC3 [Example C176] | 15 | 0.274
